US9944600B2, “Piperidine derivatives for GPR119 agonist” (CHONG KUN DANG PHARMACEUTICAL CORP., priority 2012, dated 2018)

Key:
GPR 119 Receptor [1] = biological target: T1, GPR 119 Receptor (Mus musculus, UniProt Q7TQP3); assay: Glucose tolerance test / whole blood glucose level change in disease model animal (DIO mouse); type: in vivo; settings: daily
T1 construct: from tissue; host or cells: whole animal: male C57/6J Jms mice (normal) or diet induced obesity C57BL/6J mice
T1 sequence (Q7TQP3 1-335): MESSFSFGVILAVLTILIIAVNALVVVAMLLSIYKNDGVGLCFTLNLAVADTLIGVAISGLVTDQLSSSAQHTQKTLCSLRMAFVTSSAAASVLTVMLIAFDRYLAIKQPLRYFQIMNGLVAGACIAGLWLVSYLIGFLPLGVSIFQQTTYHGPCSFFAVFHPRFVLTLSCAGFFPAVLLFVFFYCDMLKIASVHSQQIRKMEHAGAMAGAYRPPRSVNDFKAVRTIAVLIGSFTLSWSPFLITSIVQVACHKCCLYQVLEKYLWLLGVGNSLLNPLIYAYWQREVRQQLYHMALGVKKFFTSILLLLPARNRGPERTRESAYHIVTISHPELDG
Experimental: Male C57BL/6J mice of 6.5 weeks of age were taken with high fat diet (60% kcal, Research Diets) for 12 weeks. The obtained male diet induced obesity (DIO) C57BL/6J mice of 18.5 weeks of age were fasted for 16 hours before the start of glucose tolerance test. The experimental animal groups consist of: • A. a vehicle group (10% EtOH, 20% HPBCD in D.W.), • B. a positive control group administered with Sitagliptin (30 mg/kg), and • C. test groups administered with compound 770 and Compound 1028 (10, 30 mgkg and combination administration with sitagliptin 30 mg/kg).
Each test compounds was administered at the same time of every day for 2 weeks. Before the compound administration, whole blood glucose level was determined using a Glucometer (ACCU-CHEK, Roche). At 30 minutes after compound administration, whole blood glucose level was determined once again, and 20% glucose (2 g/kg/10 mL) was administered orally. Whole blood glucose level was determined at 20, 40, 60, 80, and 120 minutes after 20% glucose administration. Area under the curve (AUC) of whole blood glucose level was obtained using GraphPad Prism 5.0. The effect of glucose tolerance was adjudged with the corrected area under the curve (cAUC), on which the base value of glucose area under the curve was excluded.
Whole blood glucose level was measured at about 1 hour after test compound administration from caudal vein of mice using Glucometer. Whole blood glucose level was determined three times totally, that is, (1) at prior to the start of drug administration, (2) after 1 week from the start of 2-weeks drug administration, and (3) after the termination of 2-weeks drug administration. Each determination was started with 20% glucose administration, and then perfomed at 20, 40, 60, 80, and 120 minutes after 20% glucose administration.

human GPR119 receptor = biological target: T2, human GPR119 receptor (Homo sapiens, UniProt Q8TDV5); assay: Activity test for human GPR119 receptor (GeneBLAzer T-Rex GPR 119 CHO-K1 DA cells, fluorescence reporter); type: cell-based; settings: human GPR119 CHO-K1 reporter cells, 5 hours treatment, ratio to vehicle control well, read-out: % Activation
T2 construct: host or cells: GeneBLAzer T-Rex GPR 119 CHO-K1 DA cells (CHO-K1)
T2 sequence (Q8TDV5 1-335): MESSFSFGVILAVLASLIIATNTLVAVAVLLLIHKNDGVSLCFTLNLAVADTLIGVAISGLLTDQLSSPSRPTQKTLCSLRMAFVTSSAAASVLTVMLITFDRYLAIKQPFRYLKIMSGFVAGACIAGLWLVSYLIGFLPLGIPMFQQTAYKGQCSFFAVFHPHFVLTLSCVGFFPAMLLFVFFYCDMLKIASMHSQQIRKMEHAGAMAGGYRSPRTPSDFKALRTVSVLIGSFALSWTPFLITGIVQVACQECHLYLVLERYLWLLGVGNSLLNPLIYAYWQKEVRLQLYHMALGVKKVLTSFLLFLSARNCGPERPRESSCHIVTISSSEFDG
Experimental: As a human GPR119 receptor expression cell for this test, the cell line “GeneBLAzer™ T-Rex GPR 119 CHO-K1 DA cells” that is commercially available from Invitrogen, was used. The cell was incubated in the DMEM media containing 1% dialyzed fetal bovine serum etc. The cell incubator was kept at constant temperature and constant humidity of 37° C., 5% CO2.
The human GPR119 receptor expressing cell was used to this test. Each of test compounds was added to be final concentrations of 0.1, 1, 10 μM in 96 well and tested in duplicate. A fixed amount of cell was added to each well of 96 well separately, and then treated with the test compound for 5 hours. After treatment of color development agent for 2 hours, the fluorescence value was determined with plate reader. To the luminous wavelength of control well, which was not treated with the agonist sample, but in which only a vehicle (i.e., cell) was contained, the ratio of the luminous wavelength of test well, which was treated with the agonist sample, was calculated, and then converted to obtain % value.
All the results were expressed as mean±SD, and each test groups and the control group were compared using student's t-test to adjudge the effects of each test groups.

GPR 119 Receptor [2] = biological target: T1, GPR 119 Receptor; assay: Glucose tolerance test in normal mouse (animal test of activity for the GPR 119 receptor); type: in vivo; settings: normal male C57/6J Jms mice, oral glucose 2 g/kg, whole blood glucose AUC
Experimental: Male C57/6J Jms mice of 6-7 weeks of age were fasted for 16 hours before the start of glucose tolerance test. The experimental animal groups consist of: • A. a vehicle group (10% EtOH, 20% HPBCD in saline), • B. a positive control group administered with MBX-2982 (10 mg/kg), and • C. test groups administered with compound 516, 581, 586, 612, 640, 644 or etc. (10 mg/kg).
Before compound administration, that is, at 0 hour, whole blood glucose level was determined using a Glucometer (ACCU-CHEK, Roche). At 30 minutes after compound administration, whole blood glucose level was determined once again, and 20% glucose (2 g/kg/10 mL) was administered orally. Whole blood glucose level was determined at 20, 40, 60, 80, and 120 minutes after 20% glucose administration. Area under the curve (AUC) of whole blood glucose level was obtained using GraphPad Prism 5.0. The effect of glucose tolerance was adjudged with the corrected area under the curve (cAUC), on which the base value of glucose area under the curve was excluded.

[3] = 30 mpk alone, 0 week (prior to start of administration)

activity at 0.1 µM (human GPR119 receptor; test compound conc. 0.1 μM) [%]	activity at 1 µM (human GPR119 receptor; test compound conc. 1 μM) [%]	activity at 10 µM (human GPR119 receptor; test compound conc. 10 μM) [%]	Compound	Whole Blood Glucose Level Change (%) by drug administration (GPR 119 Receptor [1]; [3]) [%]	Whole Blood Glucose Level Change (%) by drug administration (GPR 119 Receptor [1]; 30 mpk alone, 1 week) [%]	Whole Blood Glucose Level Change (%) by drug administration (GPR 119 Receptor [1]; 30 mpk alone, 2 weeks) [%]	Whole Blood Glucose Level Change (%) by drug administration (GPR 119 Receptor [1]; 10 mpk alone, 0 week (prior to start of administration)) [%]	Whole Blood Glucose Level Change (%) by drug administration (GPR 119 Receptor [1]; 10 mpk alone, 1 week) [%]	Whole Blood Glucose Level Change (%) by drug administration (GPR 119 Receptor [1]; 10 mpk alone, 2 weeks) [%]	Decrease % of AUC at 10 mg/kg (GPR 119 Receptor [2]) [%]
–	–	–	N[C@@H](CC(=O)N1CCn2c(nnc2C(F)(F)F)C1)Cc1cc(F)c(F)cc1F [Sitagliptin, reference compound]	0	25.5	31.7	–	–	–	–
228	280	310	CC(C)(F)CN1CCC(COc2ccc(-c3ccc(C(=O)N4CCC[C@H]4C(N)=O)c(F)c3)nc2)CC1 [Compound 770, (S)-1-(2-fluoro-4-(5-((1-(2-fluoro-2-methylpropyl)piperidin-4-yl)methoxy)pyridine-2-yl)benzoyl)pyrrolidine-2-carboxamide]	0	25.5	26.6	0	22.9	24.0	47
